Measurements from article PMC9090415, “Discovery of small molecule inhibitors of Plasmodium falciparum apicoplast DNA polymerase” (Journal of Enzyme Inhibition and Medicinal Chemistry, 2022).

Target: P. falciparum apicoplast DNA polymerase (Pf-apPOL) (Plasmodium falciparum, UniProt Q8ILY1)
Experiment: Fluorescence-based high-throughput DNA polymerase assay (molecular beacon), primary screen and dose-response;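 on % inhibition ApPOL 90': test concentration in µM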;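 on % inhibition apPOL 180': test concentration in µM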
Format: biochemical
How it was run: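 Single-point screening used 10 µM compound with 20 nM polymerase, 20 nM hairpin substrate and 6 µM dNTPs for 90 min at 25 °C. Confirmatory titrations (2.5–80 µM) followed fluorescence at three times, and IC50 was derived from a fit including a cooperativity term n.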

[1] = DRC-1; concentration 80 (unit not given); 10'
[2] = primary screen value of the 186 hits; unit not given; 90 min, 10 µM
[3] = primary screen value; head prints only 'DNA Pol'; 90 min, 10 µM

Chain of P. falciparum apicoplast DNA polymerase (Pf-apPOL) (Q8ILY1 entry or part of it): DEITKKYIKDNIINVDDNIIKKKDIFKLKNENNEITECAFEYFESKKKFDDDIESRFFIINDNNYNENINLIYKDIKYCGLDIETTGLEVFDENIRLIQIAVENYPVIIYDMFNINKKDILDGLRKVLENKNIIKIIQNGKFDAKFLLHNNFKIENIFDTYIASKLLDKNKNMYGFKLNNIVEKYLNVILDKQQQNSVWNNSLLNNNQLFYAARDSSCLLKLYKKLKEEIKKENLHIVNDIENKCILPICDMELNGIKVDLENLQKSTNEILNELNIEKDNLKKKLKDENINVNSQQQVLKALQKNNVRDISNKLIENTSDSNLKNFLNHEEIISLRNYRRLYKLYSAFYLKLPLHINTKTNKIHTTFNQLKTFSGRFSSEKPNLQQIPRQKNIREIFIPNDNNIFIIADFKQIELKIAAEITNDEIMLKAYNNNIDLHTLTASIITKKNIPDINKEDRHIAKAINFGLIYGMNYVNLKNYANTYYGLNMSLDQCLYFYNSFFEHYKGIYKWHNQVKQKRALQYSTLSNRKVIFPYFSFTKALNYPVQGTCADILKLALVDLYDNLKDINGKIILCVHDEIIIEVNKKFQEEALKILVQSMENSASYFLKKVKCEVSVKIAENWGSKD

## O=C(Nc1cccc(C(=O)Nc2ccc(S(=O)(=O)[O-])c3cc(S(=O)(=O)[O-])cc(S(=O)(=O)[O-])c23)c1)Nc1cccc(C(=O)Nc2ccc(S(=O)(=O)[O-])c3cc(S(=O)(=O)[O-])cc(S(=O)(=O)[O-])c23)c1.[Na+].[Na+].[Na+].[Na+].[Na+].[Na+] [Molecule 39, O=C(Nc1cccc(c1)C(=O)Nc1ccc(c2c1c(cc(c2)S(=O)(=O)[O-])S(=O)(=O)[O-])S(=O)(=O)[O-])Nc1cccc(c1)C(=O)Nc1ccc(c2c1c(cc(c2)S(=O)(=O)[O-])S(=O)(=O)[O-])S(=O)(=O)[O-].[Na+].[Na+].[Na+].[Na+].[Na+].[Na+]]
'DNA Pol' of the 186 hits list (primary screen result); unit not given; 90 min, 10 µM
  DNA Pol: 94
DRC-1; 10'; concentration 2.5
  % inhibition Apo pol 10': 28.0363%
DRC-1; 10'; concentration 5
  % inhibition Apo pol 10': 43.2303%
DRC-1; 10'; concentration 10
  % inhibition Apo pol 10': 60.7681%
DRC-1; 10'; concentration 20
  % inhibition Apo pol 10': 81.9365%
DRC-1; 10'; concentration 40
  % inhibition Apo pol 10': 96.2832%
DRC-1; 10'; concentration 80
  % inhibition Apo pol 10': 99.222%
DRC-1; 90'; concentration 2.5
  % inhibition Apol 90': -1.332%
DRC-1; 90'; concentration 5
  % inhibition Apol 90': 6.063%
DRC-1; 90'; concentration 10
  % inhibition Apol 90': 22.6686%
DRC-1; 90'; concentration 20
  % inhibition Apol 90': 56.1821%
DRC-1; 90'; concentration 40
  % inhibition Apol 90': 89.9026%
DRC-1; 90'; concentration 80
  % inhibition Apol 90': 98.7402%
DRC-1; 180'; concentration 2.5
  % inhibition apPOL 180': -3.025%
DRC-1; 180'; concentration 5
  % inhibition apPOL 180': 1.181%
DRC-1; 180'; concentration 10
  % inhibition apPOL 180': 16.2132%
DRC-1; 180'; concentration 20
  % inhibition apPOL 180': 51.6229%
DRC-1; 180'; concentration 40
  % inhibition apPOL 180': 87.2271%
DRC-1; 180'; concentration 80
  % inhibition apPOL 180': 98.5627%
DRC-2, 40', concentration 20 (unit not given)
  % inhibition Apol 40': 56%
DRC-2, 90', concentration 20 (unit not given)
  % inhibition ApPOL 90': 56%
DRC-2; 5'; concentration 2.5
  % inhibition Apo pol 5': 12%
DRC-2; 5'; concentration 5
  % inhibition Apo pol 5': 23%
DRC-2; 5'; concentration 10
  % inhibition Apo pol 5': 41%
DRC-2; 5'; concentration 20
  % inhibition Apo pol 5': 52%
DRC-2; 5'; concentration 40
  % inhibition Apo pol 5': 59%
DRC-2; 5'; concentration 80
  % inhibition Apo pol 5': 63%
DRC-2; 40'; concentration 2.5
  % inhibition Apol 40': -11%
DRC-2; 40'; concentration 5
  % inhibition Apol 40': 4.26%
DRC-2; 40'; concentration 10
  % inhibition Apol 40': 29%
DRC-2; 40'; concentration 20
  % inhibition Apol 40': 56%
DRC-2; 40'; concentration 40
  % inhibition Apol 40': 75%
DRC-2; 40'; concentration 80
  % inhibition Apol 40': 79%
DRC-2; 90'; concentration 2.5
  % inhibition ApPOL 90': -13%
DRC-2; 90'; concentration 5
  % inhibition ApPOL 90': 1%
DRC-2; 90'; concentration 10
  % inhibition ApPOL 90': 28%
DRC-2; 90'; concentration 20
  % inhibition ApPOL 90': 56%
DRC-2; 90'; concentration 40
  % inhibition ApPOL 90': 78%
DRC-2; 90'; concentration 80
  % inhibition ApPOL 90': 83%
DRC-2; 180'; concentration 2.5
  % inhibition apPOL 180': -3.36%
DRC-2; 180'; concentration 5
  % inhibition apPOL 180': 7.57%
DRC-2; 180'; concentration 10
  % inhibition apPOL 180': 31%
DRC-2; 180'; concentration 20
  % inhibition apPOL 180': 58%
DRC-2; 180'; concentration 40
  % inhibition apPOL 180': 80%
DRC-2; 180'; concentration 80
  % inhibition apPOL 180': 86%
Primary screen value of the library well; unit not given; 90 min, 10 µM
  DNA Pol: 94

## O=C(Cc1cccs1)N1CCN(c2nc(CN3CCOCC3)cs2)CC1 [Molecule 35, O=C(N1CCN(CC1)c1scc(n1)CN1CCOCC1)Cc1cccs1]
DRC-1; concentration 2.5; 10'
  % inhibition Apo pol 10': -2.34%
DRC-1; concentration 2.5; 90'
  % inhibition Apol 90': -6%
DRC-1; concentration 2.5; 180'
  % inhibition apPOL 180': -10%
DRC-1; concentration 5; 10'
  % inhibition Apo pol 10': 14%
DRC-1; concentration 5; 90'
  % inhibition Apol 90': 6.43%
DRC-1; concentration 5; 180'
  % inhibition apPOL 180': -2.23%
DRC-1; concentration 10; 10'
  % inhibition Apo pol 10': 46%
DRC-1; concentration 10; 90'
  % inhibition Apol 90': 34%
DRC-1; concentration 10; 180'
  % inhibition apPOL 180': 19%
DRC-1; concentration 20; 10'
  % inhibition Apo pol 10': 76%
DRC-1; concentration 20; 90'
  % inhibition Apol 90': 68%
DRC-1; concentration 20; 180'
  % inhibition apPOL 180': 53%
DRC-1; concentration 40; 10'
  % inhibition Apo pol 10': 83%
DRC-1; concentration 40; 90'
  % inhibition Apol 90': 83%
DRC-1; concentration 40; 180'
  % inhibition apPOL 180': 81%
[1]
  % inhibition Apo pol 10': 83%
DRC-1; concentration 80; 90'
  % inhibition Apol 90': 86%
DRC-1; concentration 80; 180'
  % inhibition apPOL 180': 88%
DRC-2; 5'; concentration 2.5
  % inhibition Apo pol 5': 8%
DRC-2; 5'; concentration 5
  % inhibition Apo pol 5': 19%
DRC-2; 5'; concentration 10
  % inhibition Apo pol 5': 35%
DRC-2; 5'; concentration 40
  % inhibition Apo pol 5': 46%
DRC-2; 5'; concentration 80
  % inhibition Apo pol 5': 35%
DRC-2; 90'; concentration 2.5
  % inhibition ApPOL 90': 8%
DRC-2; 90'; concentration 40
  % inhibition ApPOL 90': 69%
DRC-2; 180'; concentration 40
  % inhibition apPOL 180': 69%
DRC-2; concentration 2.5; 5'
  % inhibition Apo pol 5': 8%
DRC-2; concentration 2.5; 40'
  % inhibition Apol 40': 9%
DRC-2; concentration 2.5; 90'
  % inhibition ApPOL 90': 8%
DRC-2; concentration 2.5; 180'
  % inhibition apPOL 180': 1.49%
DRC-2; concentration 5; 5'
  % inhibition Apo pol 5': 19%
DRC-2; concentration 5; 40'
  % inhibition Apol 40': 22%
DRC-2; concentration 5; 90'
  % inhibition ApPOL 90': 20%
DRC-2; concentration 5; 180'
  % inhibition apPOL 180': 13%
DRC-2; concentration 10; 5'
  % inhibition Apo pol 5': 35%
DRC-2; concentration 10; 40'
  % inhibition Apol 40': 43%
DRC-2; concentration 10; 90'
  % inhibition ApPOL 90': 41%
DRC-2; concentration 10; 180'
  % inhibition apPOL 180': 31%
DRC-2; concentration 20; 5'
  % inhibition Apo pol 5': 45%
DRC-2; concentration 20; 40'
  % inhibition Apol 40': 61%
DRC-2; concentration 20; 90'
  % inhibition ApPOL 90': 62%
DRC-2; concentration 20; 180'
  % inhibition apPOL 180': 56%
DRC-2; concentration 40; 5'
  % inhibition Apo pol 5': 46%
DRC-2; concentration 40; 40'
  % inhibition Apol 40': 64%
DRC-2; concentration 40; 90'
  % inhibition ApPOL 90': 69%
DRC-2; concentration 40; 180'
  % inhibition apPOL 180': 69%
DRC-2; concentration 80; 5'
  % inhibition Apo pol 5': 35%
DRC-2; concentration 80; 40'
  % inhibition Apol 40': 59%
DRC-2; concentration 80; 90'
  % inhibition ApPOL 90': 65%
DRC-2; concentration 80; 180'
  % inhibition apPOL 180': 70%
First dose-response set; 10'; concentration 10
  % inhibition Apo pol 10': 46%
First dose-response set; 10'; concentration 40
  % inhibition Apo pol 10': 83%
First dose-response set; 10'; concentration 80 (unit not given)
  % inhibition Apo pol 10': 83%
First dose-response set; 90'; concentration 40
  % inhibition Apol 90': 83%
First dose-response set; 180'; concentration 10
  % inhibition apPOL 180': 19%
[2]
  DNA Pol: 37
[3]
  DNA Pol: 37

## COc1ccc(-c2occ(C(=O)O)c2C(=O)O)cc1 [KU0021536]
DRC-1; concentration 2.5; 10'
  % inhibition Apo pol 10': 12.66%
DRC-1; concentration 2.5; 90'
  % inhibition Apol 90': 6.208%
DRC-1; concentration 2.5; 180'
  % inhibition apPOL 180': 0.2787%
DRC-1; concentration 5; 10'
  % inhibition Apo pol 10': 21.9361%
DRC-1; concentration 5; 90'
  % inhibition Apol 90': 18.5169%
DRC-1; concentration 5; 180'
  % inhibition apPOL 180': 12.9539%
DRC-1; concentration 10; 10'
  % inhibition Apo pol 10': 43.1098%
DRC-1; concentration 10; 90'
  % inhibition Apol 90': 39.5848%
DRC-1; concentration 10; 180'
  % inhibition apPOL 180': 35.5357%
DRC-1; concentration 20; 10'
  % inhibition Apo pol 10': 66.1228%
DRC-1; concentration 20; 90'
  % inhibition Apol 90': 63.2397%
DRC-1; concentration 20; 180'
  % inhibition apPOL 180': 62.8921%
DRC-1; concentration 40; 10'
  % inhibition Apo pol 10': 86.5866%
DRC-1; concentration 40; 90'
  % inhibition Apol 90': 84.6266%
DRC-1; concentration 40; 180'
  % inhibition apPOL 180': 85.4203%
[1]
  % inhibition Apo pol 10': 93.5468%
DRC-1; concentration 80; 90'
  % inhibition Apol 90': 92.3135%
DRC-1; concentration 80; 180'
  % inhibition apPOL 180': 92.8082%
DRC-2; 5'; concentration 40
  % inhibition Apo pol 5': 50%
DRC-2; 40'; concentration 10
  % inhibition Apol 40': 48%
DRC-2; 90'; concentration 10
  % inhibition ApPOL 90': 50%
DRC-2; 90'; concentration 80
  % inhibition ApPOL 90': 77%
DRC-2; 180'; concentration 10
  % inhibition apPOL 180': 48%
DRC-2; 180'; concentration 40
  % inhibition apPOL 180': 77%
DRC-2; concentration 2.5; 5'
  % inhibition Apo pol 5': 7%
DRC-2; concentration 2.5; 40'
  % inhibition Apol 40': 17%
DRC-2; concentration 2.5; 90'
  % inhibition ApPOL 90': 16%
DRC-2; concentration 2.5; 180'
  % inhibition apPOL 180': 10%
DRC-2; concentration 5; 5'
  % inhibition Apo pol 5': 21%
DRC-2; concentration 5; 40'
  % inhibition Apol 40': 30%
DRC-2; concentration 5; 90'
  % inhibition ApPOL 90': 32%
DRC-2; concentration 5; 180'
  % inhibition apPOL 180': 27%
DRC-2; concentration 10; 5'
  % inhibition Apo pol 5': 34%
DRC-2; concentration 10; 40'
  % inhibition Apol 40': 48%
DRC-2; concentration 10; 90'
  % inhibition ApPOL 90': 50%
DRC-2; concentration 10; 180'
  % inhibition apPOL 180': 48%
DRC-2; concentration 20; 5'
  % inhibition Apo pol 5': 43%
DRC-2; concentration 20; 40'
  % inhibition Apol 40': 62%
DRC-2; concentration 20; 90'
  % inhibition ApPOL 90': 66%
DRC-2; concentration 20; 180'
  % inhibition apPOL 180': 67%
DRC-2; concentration 40; 5'
  % inhibition Apo pol 5': 50%
DRC-2; concentration 40; 40'
  % inhibition Apol 40': 70%
DRC-2; concentration 40; 90'
  % inhibition ApPOL 90': 75%
DRC-2; concentration 40; 180'
  % inhibition apPOL 180': 77%
DRC-2; concentration 80; 5'
  % inhibition Apo pol 5': 51%
DRC-2; concentration 80; 40'
  % inhibition Apol 40': 74%
DRC-2; concentration 80; 90'
  % inhibition ApPOL 90': 77%
DRC-2; concentration 80; 180'
  % inhibition apPOL 180': 80%
[2]
  DNA Pol: 29
[3]
  DNA Pol: 29
